This note sets out measurements from US7989431B2, “2-propynyl adenosine analogs with modified 5′-ribose groups having A2A agonist activity” (University of Virginia Patent Foundation, priority 2004, dated 2011).

One assay addresses T1, human A1 AR (Homo sapiens, UniProt P30542).
T1 construct: expressed in transfected cells; membranes
T1 sequence (P30542 1-326): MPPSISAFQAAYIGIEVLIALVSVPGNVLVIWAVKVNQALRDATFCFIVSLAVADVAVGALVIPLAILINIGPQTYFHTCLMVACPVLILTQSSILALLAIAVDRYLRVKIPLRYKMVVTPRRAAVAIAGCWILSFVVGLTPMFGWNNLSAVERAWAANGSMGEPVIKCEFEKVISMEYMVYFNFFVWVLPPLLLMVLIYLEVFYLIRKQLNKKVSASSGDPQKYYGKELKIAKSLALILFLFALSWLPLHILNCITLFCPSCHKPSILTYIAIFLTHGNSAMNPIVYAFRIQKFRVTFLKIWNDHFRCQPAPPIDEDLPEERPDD
In words: Radioligand competition binding, human A1 AR. Particulars: binding affinity; 125I-ABA; membranes of CHO K1 cells stably expressing human A1 AR. As to the method: (§1) Sf9 cells were cultured in Grace's medium supplemented with 10% fetal bovine serum, 2.5 μg/ml amphotericin B and 50 μg/ml gentamycin in an atmosphere of 50% N2/50% O2. Viral infection was performed at a density of 2.5×10^6 cells/mL with a multiplicity of infection of two for each virus used. Infected cells were harvested 3 days post-infection and washed twice in insect PBS (PBS pH 6.3). Cells were then resuspended in lysis buffer (20 mM HEPES pH 7.5, 150 mM NaCl, 3 mM MgCl2, 1 mM β-mercaptoethanol (BME), 5 μg/mL leupeptin, 5 μg/mL pepstatin A, 1 μg/mL aprotinin, and 0.1 mM PMSF) and snap frozen for storage at −80° C. Cells were thawed on ice, brought to 30 mL total volume in lysis buffer, and burst by N2 cavitation (600 psi for 20 minutes). A low-speed centrifugation was performed to remove any unlysed cells (1000×g for 10 minutes), followed by a high-speed centrifugation (17,000×g for 30 minutes). The pellet from the final centrifugation was homogenized in buffer containing 20 mM HEPES pH 8, 100mM NaCl, 1% glycerol, 2 μg/mL leupeptin, 2 μg/mL pepstatin A, 2 μg/mL Aprotinin, 0.1 mM PMSF, and 10 μM GDP using a small glass homogenizer followed by passage through a 26 gauge needle. Membranes were aliquoted, snap frozen in liquid N2, and stored at −80° C. Membranes from cells stably expressing the human A1 AR(CHO K1 cells) or A3 AR(HEK 293 cells) were prepared as described (Robeva et al., 1996).
(§2) Radioligand binding to recombinant human A2A receptors in Sf9 cell membranes was performed using either the radio labeled agonist, ^125I-APE (Luthin et al., 1995) or the radio labeled antagonist, ^125I-ZM241385 (^125I-ZM). To detect the high affinity, GTPγS-sensitive state of A1 and A3AR, we used the agonist, ^125I-ABA (Linden et al., 1985; Linden et al., 1993). Binding experiments were performed in triplicate with 5 μg (A2A) or 25 μg (A1 and A3) membrane protein in a total volume of 0.1 mL HE buffer (20 mM HEPES and 1 mM EDTA) with 1 U/mL adenosine deaminase and 5 mM MgCl2 with or without 50 μM GTPγS. Membranes were incubated with radioligands at room temperature for three hours (for agonists) or two hours (for antagonists) in Millipore Multiscreen® 96-well GF/C filter plates and assays were terminated by rapid filtration on a cell harvester (Brandel, Gaithersburg, Md.) followed by 4×150 μl washes over 30 seconds with ice cold 10 mM Tris-HCl, pH 7.4, 10 mM MgCl2. Nonspecific binding was measured in the presence of 50 μM NECA. Competition binding assays were performed as described (Robeva et al., 1996) using 0.5-1 nM ^125I-APE, ^125I-ZM241385, or ^125I-ABA. […]
(Displacement assays read how much labelled ligand stays bound in the presence of the test substance.)

The subject of the next assay is human neutrophils. The assay can be described thus: Human neutrophil oxidative activity, luminol-enhanced chemiluminescence. It counts as cell-based. Conditions: fMLP-stimulated peak chemiluminescence. An excerpt: Chemiluminescence Methods: Luminol enhanced chemiluminescence, a measure of neutrophil oxidative activity, is dependent upon both superoxide production and mobilization of the granule enzyme myeloperoxidase. The light is emitted from unstable high-energy oxygen species such as hypochlorous acid and singlet oxygen generated by activated neutrophils.
Purified human neutrophils (2×10^6/ml) suspended in Hanks balanced salt solution containing 0.1% human serum albumin (HA), adenosine deaminase (1 U/mL) and rolipram (100 nM) were incubated (37° C.) in a water bath for 15 min with or without rhTNF(10 U/ml). Following incubation 100 µL aliquots of the PMN were transferred to wells (White walled clear bottom 96 well tissue culture plates Costar #3670; 2 wells/condition) containing […] and luminol (final concentration 100 µM) with or without adenosine agonist (final agonist concentrations 0.01-1000 nM). The plate was incubated 5 min (37° C.) and then fMLP (501 in HA; final concentration […]) was added to all wells.
Peak chemiluminescence was determined with a Victor 1420 Multilabel Counter in the chemiluminescence mode using the Wallace Workstation software. Data are presented as peak chemiluminescence as percent of activity in the absence of an adenosine agonist. The EC50 was determined using PRISM software. All compounds were tested with PMNs from three separate donors.
f-met-leu-phe (fMLP), luminol, superoxide dismutase, cytochrome C, fibrinogen, adenosine deaminase, and trypan blue were obtained from Sigma Chemical. Ficoll-hypaque was purchased from ICN (Aurora, Ohio), and Cardinal Scientific (Santa Fe, N. Mex.) and Accurate Chemicals and Scientific (Westerbury, N.Y.). Endotoxin (lipopolysaccharide; E. coli K235) was from List Biologicals (Campbell, Calif.). Hanks balanced salt solution (HBSS), and limulus amebocyte lysate assay kit were from BioWittaker (Walkersville, Md.). Human serum albumin (HSA) was from Cutter Biological (Elkhart, Ind.). Recombinant human tumor necrosis factor-alpha was supplied by Dianippon Pharmaceutical Co. Ltd. (Osaka, Japan). ZM241385 (4-(2-[7-amino-2-(2-furyl) [1,2,4]triazolo[2,3-a][1,3,5]triazin-5-yl amino]ethyl)phenol) was a gift from Simon Poucher, Zeneca Pharmaceuticals, Cheshire, UK. Stock solutions (1 mM and 10 mM in DMSO) were made and stored at −20° C.
Purified neutrophils (−98% neutrophils and >95% viable by trypan blue exclusion) containing <1 platelet per 5 neutrophils and <50 pg/ml endotoxin (limulus amebocyte lysate assay) were obtained from normal heparinized (10 U/ml) venous blood by a one step Ficoll-hypaque separation procedure (A. Ferrante et al., J. Immunol. Meth., 36, 109 (1980)).
Luminol-enhanced chemiluminescence, a measure of neutrophil oxidative activity, is dependent upon both superoxide production and mobilization of the lysosomal granule enzyme myeloperoxidase. The light is emitted from unstable high-energy oxygen species generated by activated neutrophils. Purified neutrophils (5-10×10^5/ml) were incubated in Hanks balanced salt solution containing 0.1% human serum albumin (1 ml) with the tested A2A agonist with or without rolipram and with or without tumor necrosis factor-alpha (1 U/ml) for 30 minutes at 37° C. in a shaking water bath. Then luminol (1×10^−4 M) enhanced f-met-leu-phe (1 mcM) stimulated chemiluminescence was read with a Chronologo Photometer (Crono-log Corp., Havertown, Pa.) at 37° C. for 2-4 minutes. Chemiluminescence is reported as relative peak light emitted (=height of the curve) compared to samples with tumor necrosis factor-alpha and without agonist or rolipram.

Assay [1] deals with T2, recombinant human A2A receptors (Homo sapiens, UniProt P29274).
T2 construct: expressed in transfected cells; host or cells: Sf9 insect cells, viral infection; membranes
The assay can be described thus: Radioligand competition binding, recombinant human A2A receptors. Conditions: binding affinity; 125I-APE or 125I-ZM241385; Sf9 cell membranes. As to the method:
as §1, §2

In another assay the target is T3, A3 AR (Homo sapiens, UniProt P0DMS8).
T3 construct: expressed in transfected cells; membranes
T3 sequence (P0DMS8 1-318): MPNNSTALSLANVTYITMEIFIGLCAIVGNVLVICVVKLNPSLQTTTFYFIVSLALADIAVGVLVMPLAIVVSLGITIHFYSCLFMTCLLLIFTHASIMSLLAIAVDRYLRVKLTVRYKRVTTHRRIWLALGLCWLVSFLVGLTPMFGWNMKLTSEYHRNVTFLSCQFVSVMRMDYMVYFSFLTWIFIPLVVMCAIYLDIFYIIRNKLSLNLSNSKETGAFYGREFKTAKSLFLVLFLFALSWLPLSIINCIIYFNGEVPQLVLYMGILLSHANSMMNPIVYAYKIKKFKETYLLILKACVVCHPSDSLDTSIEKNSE
In words: Radioligand competition binding, human A3 AR. Particulars: binding affinity; 125I-ABA; membranes of HEK 293 cells stably expressing human A3 AR. The procedure: as §1, §2

The mark [2] stands for this setting: human neutrophil experiment with Rolipram, read-out: Functional + Roli.
Where [3] appears, read: human neutrophil experiment without Rolipram, read-out: Functional.

What is called Ki is a dissociation constant, usually derived from enzyme kinetics or from competition with a known ligand.

Each structure is given as a SMILES string. Read-outs that look alike come from different tables or passages of the source.

T2 sequence (P29274 whole entry): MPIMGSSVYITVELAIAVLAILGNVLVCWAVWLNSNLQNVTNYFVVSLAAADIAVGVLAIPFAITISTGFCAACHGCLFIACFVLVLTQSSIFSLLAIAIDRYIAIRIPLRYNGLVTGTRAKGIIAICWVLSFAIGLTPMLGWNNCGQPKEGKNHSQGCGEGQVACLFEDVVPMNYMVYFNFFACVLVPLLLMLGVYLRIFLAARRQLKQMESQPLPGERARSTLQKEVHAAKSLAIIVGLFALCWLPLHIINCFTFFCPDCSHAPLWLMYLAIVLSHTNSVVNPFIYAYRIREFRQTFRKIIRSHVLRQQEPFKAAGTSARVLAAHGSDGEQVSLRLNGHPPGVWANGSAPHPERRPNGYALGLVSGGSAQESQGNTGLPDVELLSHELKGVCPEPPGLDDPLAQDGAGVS

Take `Nc1nc(I)nc2c1ncn2[C@@H]1O[C@H](C(=O)NC2CC2)C(O)C1O` (stereo in doubt) [Example 4, 5-(6-Amino-2-iodo-purin-9-yl)-3,4-dihydroxy-tetrahydro-furan-2-carboxylic acid cyclopropylamide]: the Ki on human A1 AR was determined as 33 nM; in assay [1] it was 0.6 nM; at A3 AR it was 45 nM. Also, the EC50 was determined as 0.2 nM in the assay with human neutrophils (setting [2]) and 2 nM in the assay with human neutrophils (setting [3]).

Regarding `COC(=O)N1CCC(CC#Cc2nc(N)c3ncn([C@@H]4O[C@H](C(=O)NC5CC5)C(O)C4O)c3n2)CC1` (stereo in doubt) [Example 2, 4-{3-[6-Amino-9-(5-cyclopropylcarbamoyl-3,4-dihydroxy-tetrahydro-furan-2-yl)-9H-purin-2-yl]-prop-2-ynyl}-piperidine-1-carboxylic acid methyl ester], the Ki at human A1 AR is 57 nM; in assay [1], 0.7 nM; at A3 AR it was 247 nM. Besides, the values for the EC50 with human neutrophils (setting [2]) and in the assay with human neutrophils (setting [3]) were 0.2 nM and 2 nM, respectively.

For the molecule `C[C@@H]1CCC[C@@](O)(C#Cc2nc(N)c3ncn([C@@H]4O[C@H](C(=O)NC5CC5)C(O)C4O)c3n2)C1` (stereo in doubt) [Example 3, 5-[6-Amino-2-(1-hydroxy-3-methyl-cyclohexylethynyl)-purin-9-yl]-3,4-dihydroxy-tetrahydro-furan-2-carboxylic acid cyclopropylamide], the Ki on human A1 AR worked out at 1.5 nM; in assay [1], 0.5 nM; at A3 AR it was 3 nM. Moreover, the results for the EC50 in the assay on human neutrophils (setting [2]) and with human neutrophils (setting [3]) were 0.04 nM and 0.3 nM, respectively.

In the case of `COC(=O)C1CCC(CC#Cc2nc(N)c3ncn([C@@H]4O[C@H](C(=O)NC5CC5)C(O)C4O)c3n2)CC1` (stereo in doubt) [Example 1, 4-{3-[6-Amino-9-(5-cyclopropylcarbamoyl-3,4-dihydroxy-tetrahydro-furan-2-yl)-9H-purin-2-yl]-prop-2-ynyl}-cyclohexanecarboxylic acid methyl ester], the Ki was found to be 32 nM at human A1 AR, 0.58 nM in assay [1] and 34 nM at A3 AR. In addition, the EC50 in the assay with human neutrophils (setting [2]) was 0.2 nM; in the assay on human neutrophils (setting [3]), 2 nM.
